System: Lactobacillus plantarum CJLP475 strain
Experiment: Antibiotic susceptibility test with antibiotic discs
Format: cell-based
Conditions: antibiotic discs on solid Mueller Hinton II medium, 37° C., 24 hours
Method: The CJLP475 strain was inoculated into a liquid MRS medium and subjected to a static culture at 37° C. for 24 hours. The thus-cultured bacteria were soaked in sterilized cotton swabs and smeared on a solid Mueller Hinton II medium (Difco), and then antibiotic discs were placed on the medium and incubated at 37° C. for 24 hours. Ampicillin, clindamycin, gentamicin, kanamycin, erythromycin, ampicillin/sulbactam, chloramphenicol, and streptomycin discs (Oxoid, UK) were used as antibiotic discs for the antibiotic test.

| Compound | Radius of Growth Inhibition Area Centered Around Antibiotics [mm] |
| --- | --- |
| CC1(C)S[C@@H]2[C@H](NC(=O)[C@H](N)c3ccccc3)C(=O)N2[C@H]1C(=O)O [Amp10 (Ampicillin), Ampicillin] | 7 |
| CCC[C@@H]1C[C@@H](C(=O)N[C@@H]([C@H]2O[C@H](SC)[C@H](O)[C@@H](O)[C@H]2O)[C@H](C)Cl)N(C)C1 [C30 (Clindamycin), Clindamycin] | 8 |
| [H]/N=C(/N)N[C@H]1[C@H](O)[C@@H](O)[C@H](O[C@@H]2O[C@@H](C)[C@](O)(C=O)[C@H]2O[C@@H]2O[C@@H](CO)[C@H](O)[C@@H](O)[C@@H]2NC)[C@@H](N/C(N)=N\[H])[C@@H]1O [DA2 (Streptomycin), Streptomycin] | 4 |
| CC[C@H]1OC(=O)[C@H](C)[C@@H](O[C@H]2C[C@@](C)(OC)[C@@H](O)[C@H](C)O2)[C@H](C)[C@@H](O[C@@H]2O[C@H](C)C[C@H](N(C)C)[C@H]2O)[C@](C)(O)C[C@@H](C)C(=O)[C@H](C)[C@@H](O)[C@]1(C)O [E15 (Erythromycin), Erythromycin] | 9 |
| NC[C@H]1O[C@H](O[C@H]2[C@H](O)[C@@H](O[C@H]3O[C@H](CO)[C@@H](O)[C@H](N)[C@H]3O)[C@H](N)C[C@@H]2N)[C@H](O)[C@@H](O)[C@@H]1O [K30 (Kanamycin), Kanamycin] | 1.5 |
| O=C(N[C@H](CO)[C@H](O)c1ccc([N+](=O)[O-])cc1)C(Cl)Cl [S10 (Chloramphenicol), Chloramphenicol] | 3 |
| Ampicillin/Sulbactam [SAM20 (Ampicillin/Sulbactam)] | 8 |
| Gentamicin [CN120 (Gentamicin)] | 9 |

Reference: patent publication US11492589B2, “Lactobacillus plantarum CJLP475 strain having antiviral and immunomodulatory effects and composition comprising the same” (CJ CHEILJEDANG CORPORATION, priority 2018, dated 2022)
